Results: patent publication US12319664B2, “Herbicidally active 3-phenylisoxazoline-5-carboxamides of cyclopentenylcarboxylic acid derivatives” (Bayer Aktiengesellschaft, priority 2018, dated 2025)

How the values were obtained:
AVEFA = experiment: Post-emergence herbicidal action against AVEFA; assay type: in vivo, Avena fatua; settings: application rate 80 g/ha, rated visually after about 3 weeks
Procedure: (§1) [table] 2. Post-emergence herbicidal action against harmful plants and crop plant compatibility Seeds of monocotyledonous and dicotyledonous weeds and crop plants are placed in sandy loam in plastic or wood-fibre pots, covered with soil and cultivated in a greenhouse under controlled growth conditions. 2 to 3 weeks after sowing, the test plants are treated at the one-leaf stage. The compounds of the invention, formulated in the form of wettable powders (WP) or as emulsion concentrates (EC), are then sprayed onto the green parts of the plants as aqueous suspension or emulsion with addition of 0.5% additive at a water application rate of 600 l/ha (converted). After the test plants have been kept in the greenhouse under optimum growth conditions for about 3 weeks, the activity of the preparations is rated visually in comparison to untreated controls. For example, 100% activity=the plants have died, 0% activity=like control plants.

LOLRI = experiment: Post-emergence herbicidal action against LOLRI; assay type: in vivo, Lolium rigidum; settings: application rate 80 g/ha, rated visually after about 3 weeks
Procedure: as §1

POLCO = experiment: Post-emergence herbicidal action against POLCO; assay type: in vivo, Polygonum convolvulus; settings: application rate 80 g/ha, rated visually about 3 weeks after treatment
Procedure: as §1

ALOMY = experiment: Post-emergence herbicidal action against ALOMY; assay type: in vivo, Alopecurus myosuroides; settings: application rate 80 g/ha, rated visually after about 3 weeks
Procedure: as §1

ECHCG = experiment: Post-emergence herbicidal action against ECHCG; assay type: in vivo, Echinochloa crus-galli; settings: application rate 80 g/ha, rated visually after about 3 weeks
Procedure: as §1

AMARE = experiment: Post-emergence herbicidal action against AMARE; assay type: in vivo, Amaranthus retroflexus; settings: application rate 80 g/ha, rated visually about 3 weeks after treatment
Procedure: as §1

HORMU = experiment: Post-emergence herbicidal action against HORMU; assay type: in vivo, Hordeum murinum; settings: application rate 80 g/ha
Procedure: as §1

SETVI = experiment: Post-emergence herbicidal action against SETVI; assay type: in vivo, Setaria viridis; settings: application rate 80 g/ha, rated visually after about 3 weeks
Procedure: as §1

VERPE = experiment: Post-emergence herbicidal action against VERPE; assay type: in vivo, Veronica persica; settings: application rate 80 g/ha
Procedure: as §1

ABUTH = experiment: Post-emergence herbicidal action against ABUTH; assay type: in vivo, Abutilon theophrasti; settings: application rate 80 g/ha, rated visually about 3 weeks after treatment
Procedure: as §1

STEME = experiment: Post-emergence herbicidal action against STEME; assay type: in vivo, Stellaria media; settings: application rate 80 g/ha, rated visually about 3 weeks after treatment
Procedure: as §1

| Structure (SMILES) | Herbicidal action against [%] AVEFA (AVEFA) [%] | Herbicidal action against [%] LOLRI (LOLRI) [%] | Herbicidal action against [%] POLCO (POLCO) [%] | Herbicidal action against [%] ALOMY (ALOMY) [%] | Herbicidal action against [%] ECHCG (ECHCG) [%] | Herbicidal action against [%] AMARE (AMARE) [%] | Herbicidal action against [%] HORMU (HORMU) [%] | Herbicidal action against [%] SETVI (SETVI) [%] | Herbicidal action against [%] VERPE (VERPE) [%] | Herbicidal action against [%] ABUTH (ABUTH) [%] | Herbicidal action against [%] STEME (STEME) [%] |
| --- | --- | --- | --- | --- | --- | --- | --- | --- | --- | --- | --- |
| COC(=O)C(C)(C)NC(=O)C1C=CC(NC(=O)C2(C)CC(c3cc(F)cc(F)c3)=NO2)C1 (mixture of isomers) [II-09] | 90 | 80 | 90 | – | – | – | – | – | – | – | – |
| C=CC1(C(=O)NC2C=CC(C(=O)NC(C(=O)OC)C(C)C)C2)CC(c2cc(F)cc(F)c2)=NO1 (mixture of isomers) [II-25] | 90 | 90 | 80 | 80 | 80 | 80 | 100 | – | – | – | – |
| C=CC1(C(=O)NC2C=CC(C(=O)NC(C)(C)C(=O)OC)C2)CC(c2cc(F)cc(F)c2)=NO1 (stereo not shown) [II-21] | – | – | 80 | – | – | – | – | – | – | – | – |
| C=CC1(C(=O)N[C@H]2C=C[C@H](C(=O)N3CCCCO3)C2)CC(c2cc(F)cc(F)c2)=NO1 (stereo partly shown) [II-29] | 80 | 90 | 80 | – | 90 | 80 | 80 | 80 | 80 | – | – |
| C=CC1(C(=O)NC2C=CC(C(=O)N3CCCCO3)C2)CC(c2cc(F)cc(F)c2)=NO1 (mixture of isomers) [II-30] | 100 | 90 | 90 | 100 | 90 | 80 | – | 80 | 80 | 80 | – |
| CCOC(=O)C1C=CC(NC(=O)C2(C(F)(F)F)CC(c3cc(OC)cc(OC)c3)=NO2)C1 (mixture of isomers) [Example I-043] | 90 | 90 | – | 90 | 80 | 80 | 80 | 80 | 80 | 80 | 80 |
| Cc1cc(C)cc(C2=NOC(C(=O)NC3C=CC(C(=O)OCCCl)C3)(C(F)(F)F)C2)c1 (mixture of isomers) [Example I-056] | 90 | 90 | 80 | 100 | 80 | 80 | 80 | 80 | 80 | – | 90 |
| C=CC1(C(=O)NC2C=CC(C(=O)N3CCCO3)C2)CC(c2cc(F)cc(F)c2)=NO1 (stereo not shown) [II-27] | 90 | 90 | 90 | 90 | 90 | 80 | 80 | 80 | 90 | – | 90 |
| COC(=O)CS(=O)(=O)NC(=O)C1C=CC(NC(=O)C2(C(F)(F)F)CC(c3cc(F)cc(F)c3)=NO2)C1 (stereo not shown) [II-39] | 90 | 80 | – | 80 | – | 80 | 80 | – | 80 | – | – |
| CC(C)(C)OC(=O)C1C=CC(NC(=O)C2(C(F)(F)F)CC(c3cc(F)cc(F)c3)=NO2)C1 (mixture of isomers) [Example I-066] | 90 | 90 | 80 | 90 | 80 | 90 | 90 | 90 | 80 | – | – |
| C=CC1(C(=O)NC2C=CC(C(=O)NC(C)(C)C#N)C2)CC(c2cc(F)cc(F)c2)=NO1 (mixture of isomers) [II-20] | 100 | – | – | – | – | – | – | – | – | – | 80 |
| COCCOC(=O)C1C=CC(NC(=O)C2(C)CC(c3cccc(C#N)c3)=NO2)C1 (mixture of isomers) [Example I-081] | 100 | 100 | 90 | – | – | 80 | 100 | 80 | 80 | 80 | 90 |
| O=C(OCCCl)[C@@H]1C=C[C@H](NC(=O)C2(C(F)(F)F)CC(c3ccccc3)=NO2)C1 (stereo partly shown) [Example I-025] | 90 | 90 | 100 | 90 | 80 | 90 | 80 | 90 | – | – | 80 |
| C=CC1(C(=O)NC2C=CC(C(=O)NC(C#N)C(C)C)C2)CC(c2cc(F)cc(F)c2)=NO1 (mixture of isomers) [II-17] | – | – | – | 80 | – | – | – | – | – | – | – |
| Cc1cc(C2=NOC(C(=O)NC3C=CC(C(=O)OCC(F)(F)F)C3)(C(F)(F)F)C2)cc(C(F)(F)F)c1 (mixture of isomers) [Example I-050] | 90 | – | – | 90 | – | 80 | 90 | – | – | 80 | – |
| C=CC1(C(=O)NC2C=CC(C(=O)OC(C)C)C2)CC(c2cc(F)cc(F)c2)=NO1 (mixture of isomers) [Example I-034] | 90 | 100 | 80 | 90 | 80 | – | 90 | 80 | 90 | 80 | 90 |
| C=CC1(C(=O)NC2C=CC(C(=O)NC(C)(C)C(=O)OC)C2)CC(c2cc(F)cc(F)c2)=NO1 (stereo not shown) [II-22] | 90 | 90 | – | 80 | – | – | 90 | – | 80 | – | 80 |
